Assay results taken from patent US20240076620A1, “PRODUCTION OF SKELETAL MUSCLE CELLS AND SKELETAL MUSCLE TISSUE FROM PLURIPOTENT STEM CELLS” (Georg-August-Universität Göttingen Stiftung Öffentlichen …, priority 2019, published 2024).

What was measured:
Type in all cases: cell-based, human
[1] = system: MYH7 (slow myosin heavy chain); assay: Western blot of myosin heavy chain protein in ESM; conditions: addition of 0.1 μM T3; day 84
Description: (§1) To investigate the molecular cause of this improved muscle function, the expression of different proteins was analyzed by Western blots. MYH2 is the heavy chain of the fast myosin (MYH2; fast myosin heavy chain); MYH7 is the heavy chain of the slow myosin (MYH7; slow myosin heavy chain); MYH3 is the heavy chain of the embryonic myosin (MYH3; embryonic myosin heavy chain). Protein expression was analyzed at day 84. […] Based on three independent experiments, the expression is increased at least 5-fold. The expression of MYH7 remained unchanged by an addition of 0.1 μM T3. […] These protein expression data support the functional data from FIGS. 10B, as the reduced response time of the engineered skeletal muscle can be explained by an increased expression of the fast myosin (MYH2) isoform by T3.
(§2) For protein isolation, engineered skeletal muscle was placed in an Eppendorf tube and snap frozen in liquid nitrogen. To the engineered skeletal muscle, 150 μl of ice-cold protein lysate buffer (2.38 g HEPES, 10.20 g NaCl, 100 ml glycerol, 102 mg MgCl2, 93 mg EDTA, 19 mg EGTA, 5 ml NP-40 in a total volume of 500 ml ddH2O) containing 1/10 phosphatase inhibitor (Roche) and 1/7 protease inhibitor (Roche) were added. A 7-mm stainless steel ball (Qiagen) was added to the Eppendorf tube, and the sample was homogenized using the TissueLyser II (Qiagen) for 30 seconds at 30 Hz and 4° C., followed by incubation on ice for 2 hours and then centrifugation at 12,000 rpm and 4° C. for 30 minutes. The supernatant was collected as a protein sample, and the protein concentration was measured by Bradford protein assay. […] Protein expression in ESM was analyzed by Western blot using the following primary antibodies: monoclonal embryonic myosin heavy chain 3 (1:500, F1.652, DSHB), slow myosin type heavy chain 7 (1:500, A4.951, DSHB), and fast myosin type heavy chain 2 (1:100, A4.74, DSHB). […] Protein quantification from the Western blot was performed using ImageJ.

[2] = system: MYH3 (embryonic myosin heavy chain); assay: Western blot of myosin heavy chain protein in ESM; conditions: addition of 0.1 μM T3; day 84; on average
Description: as §1, §2

[3] = system: MYH2 (fast myosin heavy chain); assay: Western blot of myosin heavy chain protein in ESM; conditions: four-week addition of 0.1 μM T3; day 84; three independent experiments
Description: as §1, §2

[4] = system: engineered skeletal muscle tissue (ESM); assay: Isometric force measurements of engineered skeletal muscle (ESM) matured with medium additives; conditions: for contraction speed (+dFOC/dt): 100 Hz stimulation; for contraction speed (+dFOC/dt) / relaxation speed (−dFOC/dt): vs without added T3; for relaxation speed (−dFOC/dt): after 100 Hz stimulation; for increase of the force of contraction: 100 Hz, vs no creatine
From the text: To further increase the function of engineered skeletal muscle, e.g. the contraction force can be increased by adding specific molecules. In this example, we specifically tested the enhancement of the contraction force, as well as contraction and relaxation times, in response to the addition of creatine and an increased concentration of thyroid hormone T3 (triiodo-L-thyronine (T3); from 3 to 100 nmol/L in the maturation medium in step iv). Here, the procedure according to Examples 1 and 2 was performed first. In contrast to Example 2, the maturation medium was supplemented with creatine or an increased concentration of T3 either between days 28 and 56 or between days 56 and 84 of the method.
The maturation medium was changed every other day and cultured under mechanical stretching for up to 9 weeks. The maturation medium comprised DMEM, with low glucose, GlutaMAX™ Supplement, pyruvate (Thermo Fisher Scientific), 1% N-2 Supplement (Thermo Fisher Scientific), 2% B-27 Supplement (Thermo Fisher Scientific), and optional antibiotics (e.g., 1% Pen/Strep-Thermo Fisher Scientific). 0.1 μM T3 (Sigma-Aldrich) or 1 mM creatine monohydrate (Sigma-Aldrich) were added to the maturation medium for a four-week period when indicated (e.g., day 28-56 or day 56-84).
The contractile function of engineered skeletal muscle tissue was measured under isometric conditions in an organ bath filled with gassed (5% CO2/95% 02) Tyrode solution (containing in mmol/L): 120 NaCl, 1 MgCl2, 0.2 CaCl2), 5.4 KCl, 22.6 NaHCO3, […], 5.6 glucose, and 0.56 ascorbate) at 37° C. To verify the force-length relationship—while ESMs were electrically stimulated at 1 Hz with 5 ms rectangular pulses of 200 mA—muscle length was increased by mechanical stretching in intervals of 125 μm, until the maximum contraction force was observed. At the length of maximum force generation, tetanic contraction force was assessed under defined stimulation frequencies (4-second stimulation at 10, 20, 40, 60, 80, and 100 Hz).

[5] = 0.1 μM T3 between days 56 and 84

Compound | expression of MYH7 [1] | MYH3 expression [2] | protein expression of MYH2, increase [3] | contraction speed (+dFOC/dt) [4, 5] | relaxation speed (−dFOC/dt) [4, 5] | contraction speed (+dFOC/dt) ([4]; 0.1 μM T3 day 28 to day 56) | relaxation speed (−dFOC/dt) ([4]; 0.1 μM T3 day 28 to day 56) | increase of the force of contraction ([4]; 1 mM creatine day 28 to day 56) | increase of the force of contraction ([4]; 1 mM creatine day 56 to day 84) | force of contraction (FOC) ([4]; maturation medium with 1 mM creatine day 28 to day 56, tetanic contraction at 100 Hz stimulation, without creatine 1.8 mN) | force of contraction (twitch tension) ([4]; maturation medium with 1 mM creatine day 56 to day 84, tetanic contraction at 100 Hz stimulation, without creatine 4.0 mN)
N[C@@H](Cc1cc(I)c(Oc2ccc(O)c(I)c2)c(I)c1)C(=O)O [T3, triiodo-L-thyronine] | unchanged | reduced by approximately half | at least 5 fold | decreased | decreased | decreased significantly | decreased significantly | – | – | – | –
CN(CC(=O)O)C(=N)N [creatine] | – | – | – | – | – | – | – | 39% | 30% | 2.5 mN | 5.2 mN
